Experimental data published in patent US20220096515A1, “Methods and Formulations for Preventing Neurological or Psychiatric Disorders” (Huntington Medical Research Institutes, priority 2020, published 2022).

Columns and labels:
Gabrb3^fl/fl littermates = assay: Prenatal NAD+ treatment, H&E of MGE in Gabrb3^fl/fl littermates; format: in vivo, mouse; details: NAD^+-treated Gabrb3^fl/fl littermates
Experimental: Histology, immunohistochemistry, and microscopic analysis: Paraffin immunohistochemistry (IHC) was performed on embryonic brains only while frozen section IHC was used on both embryonic and adult brains. Briefly, for paraffin IHC-E18 brains were fixed in zinc fixative (BD Biosciences PharMingen) for 24 h and processed for paraffin histology. Histological stainings with hematoxylin (Vector Laboratories) and eosin (Sigma) were performed on 8 μm coronal sections. Lectin histochemistry (with biotinylated isolectin B4, 1:50, Sigma) as well as IHC was performed on 20 μm sections. Primary antibodies used for IHC were as follows: anti-PHH3 (1:200, Millipore) and anti-NKX2.1, (1:50; Sigma) followed by secondary detection with AlexaFluor conjugates (Invitrogen). DAPI (Vector Laboratories) was used to label nuclei. For frozen section IHC, E18 and P90 brains were removed, fixed in 4% PFA for 24 hours, cryo-protected in sucrose gradient, embedded into OCT medium for frozen blocks; sectioned at 40 μm on a cryostat and immunostained with anti-GABA (1:80, Sigma) and anti -PROX1 (1:80, Millipore) antibodies. Twenty sections from each brain were used for IHC and histology experiments. Uniform penetration of antibodies or stains throughout the section was ascertained and quality of the staining in each digital section was examined. […]

[1] = test system: periventricular endothelial cells isolated from E15 wildtype (CD1) forebrain; assay: Endothelial cell proliferation in culture (confluency, BrdU labeling index); format: cell-based, mouse
Experimental: (§1) Primary culture of endothelial cells and endothelial cell staining: Embryonic brains were dissected under a stereo-microscope, after the NAD^+ treatment paradigm and the telencephalon was removed. Pial membranes were peeled off. Telencephalon without pial membranes from the periventricular region was pooled. Purity of endothelial cell cultures was established with endothelial cell markers and determined to be one hundred percent. Isolation and culture of endothelial cells were performed according to published methodology. Periventricular endothelial cells were prepared from CD1 (wild type), saline-treated Gabrb3^fl/fl, saline-treated Gabrb3^ECKO, and NAD^+-treated Gabrb3^ECKO embryos. Endothelial cells were labeled with anti-biotinylated isolectinB4 (1:100, Sigma), anti-GABA (1:400, Sigma), anti-DAXX (1:100, Santa Cruz Biotechnology) and anti-P2X4 (1:100, Abclonal) followed by secondary detection with AlexaFluor conjugates (Invitrogen). DAPI (Invitrogen) was used to label nuclei. Images were taken on an FSX100 microscope (Olympus). 1 million cells were examined for each immunohistochemistry condition.
Endothelial cell proliferation and long-distance cell migration assay: To test for cell proliferation, CD1 periventricular endothelial cells (1 million cells per experiment) were incubated in the presence of the mitotic marker 5-bromo-2′-deoxyuridine (0.05% BrdU) with or without muscimol, for 1 hour to examine the impact on proliferation of these cells and processed for BrdU immunohistochemistry.
In one experiment, periventricular endothelial cells were isolated from E15 wildtype (CD1) forebrain and tested the effect of NAD^+ addition in vitro. Exogenous addition of 100 μM NAD^+ was able to initiate significant endothelial cell proliferation within 2 days of culture and a 35 mm culture dish was confluent within 4-6 days (FIGS. 2A-2D). This was an interesting observation, since untreated periventricular endothelial cells take approximately 12 days to reach confluency in 35mm dishes, in our well-established culture conditions. […] Vital elements of angiogenesis include effective endothelial cell proliferation, migration, sprouting, alignment, tube formation and branching. […] In some areas of the dish, the NAD^+-treated endothelial cells seemed to align and fold into tubular shapes (FIG. 2H), aspects that we have not seen in wild type or untreated periventricular endothelial cells in normal culture conditions.
Effects of NAD^+ addition to periventricular endothelial cells isolated from E15 wildtype (CD1) forebrain was more robust than GABA. (FIGS. 17A-17F) Phase contrast images of periventricular endothelial cells cultured from E15 CD1 forebrain at different time points in untreated conditions (FIGS. 17A-17B) or after plating with NAD^+ addition (100 μM; FIGS. 17C-17D) or GABA addition (5 μM; FIGS. 17E-17F). […] (FIG. 17G) All groups of periventricular endothelial cells were exposed to BrdU (1 mM BrdU per ml medium) for 1 hour followed by Isolectin B4/BrdU double labeling. Quantification of BrdU labeling indices; Data represents mean±SD (n=8, *P<0.05; Student's t-test).

[2] = test system: Gabrb3^ECKO endothelial cells; assay: qRT-PCR of periventricular endothelial cells after prenatal treatment; format: in vivo, mouse
Experimental: as §1
Quantitative real-time PCR: RT was performed by using iScript Reverse Transcription Supermix kit (Bio-Rad). PCR reactions were run on a CFX96 Touch Real Time PCR (Bio-Rad) with SsoAdvanced™ Universal SYBR® Green Supermix (Bio-Rad). Primers for qPCR (Daxx, P2x4, P2x7, P2y13, Tek, vwf, F2r, Sirt2, Nos1, Nrp1, Pax6, Gad1, Gad2, Grin2a, Trpm2, Trpc4 and Trpv6) were obtained from Thermo Fisher Scientific. The housekeeping gene Gapdh was used as a reference. The relative gene expression and subsequent fold changes among different samples were determined according to published methodology.
To gain mechanistic insights into NAD^+ action on endothelial cells, periventricular endothelial cells were isolated from saline-treated Gabrb3^fl/fl, saline-treated Gabrb3^ECKO, and NAD^+-treated Gabrb3^ECKO groups at the end of the treatment paradigm. […] GABA is synthesized from glutamate by Gad genes. […] The qRT-PCR gene expression levels followed a similar trend with that of the levels in the microarray data, reinforcing that the whole-tissue microarray was capable of highlighting some endothelial cells specific gene changes (FIGS. 10A-10I). […] Taken together, our results implicate NAD^+ as a critical modulator of angiogenesis in the embryonic forebrain.

[3] = periventricular endothelial cells after prenatal treatment

SMILES: NC(=O)c1ccc[n+]([C@@H]2O[C@H](COP(=O)([O-])OP(=O)(O)OC[C@H]3O[C@@H](n4cnc5c(N)ncnc54)[C@H](O)[C@@H]3O)[C@@H](O)[C@H]2O)c1 [NAD^+]
- cellular arrangement in MGE (H&E) (Gabrb3^fl/fl littermates): the same distinct cellular arrangement in the MGE
- endothelial cell proliferation (phase contrast) ([1]; 100 μM): Robust proliferation
- time to initiate significant endothelial cell proliferation ([1]; 100 μM NAD^+, days of culture): ≤ 2 days
- time until 35 mm culture dish was confluent ([1]; 100 μM NAD^+, untreated cells approximately 12 days): 4 to 6 days
- endothelial cell BrdU labeling index ([1]; NAD^+ addition vs untreated): significantly increased
- P2X7 and P2Y13 mRNA expression ([2]; after NAD^+ treatment): rescue of P2X7 and P2Y13 mRNA expression
- Gad1 and Gad2 expression by qRT-PCR [2, 3]: concurrently rescued
- calcium signaling genes (Grin2a, Trpm2, Trpc4, Trpv6) by qRT-PCR [2, 3]: rescue of several calcium signaling genes
- expression of angiogenesis regulators (Tek, vWF, F2r, Sirt2, Nos1, Pax6) by qRT-PCR [2, 3]: restored the expression of several critical regulators of angiogenesis
